The subject of experiment [1] is Plasmodium falciparum. As to the kind of experiment: Antimalarial activity against chloroquine-resistant Plasmodium falciparum W2 after 72 hrs by parasite LDH assay. Particulars: W2, 72 h. In kind it is functional, organism-based.
Experiment [2] relates to Plasmodium falciparum. As to the kind of experiment: Antimalarial activity against chloroquine-sensitive Plasmodium falciparum D10 after 72 hrs by parasite LDH assay. It is filed as functional, organism-based. Particulars: D10, 72 h.

pIC50: −log10 of the molar value.

For the molecule `C/C=C(C)/C=C/CCC[C@]1(OC)C[C@H](C)[C@H](CC(=O)OC)OO1` [MANADOPEROXIDE A], the pIC50 was 5.43 in the experiment with Plasmodium falciparum [1] and 5.16 with Plasmodium falciparum [2].

Consider `CC/C=C(C)/C=C/CCC[C@]1(OC)C[C@H](C)[C@H](CC(=O)OC)OO1` [MANADOPEROXIDE B], for which the pIC50 with Plasmodium falciparum [1] was 5.43; in the experiment with Plasmodium falciparum [2], 5.17.

In the case of `COC(=O)C[C@@H]1OO[C@@](CCC/C=C/C(C)=O)(OC)C[C@@H]1C` [MANADOPEROXIDE C], the values for the pIC50 in the experiment with Plasmodium falciparum [1] and with Plasmodium falciparum [2] were 5.63 and 5.34, respectively.

For the molecule `COC(=O)C[C@@H]1OO[C@@](CCC[C@H](O)/C=C(\C)[C@H](C)O)(OC)C[C@@H]1C` [MANADOPEROXIDE D], the negative logarithm of the IC50 (pIC50) with Plasmodium falciparum [1] was 5.10; in the experiment on Plasmodium falciparum [2], 4.98.

In the experiment on Plasmodium falciparum [1], `CC/C=C/[C@H](CC)C[C@@]1(C)C[C@@H](CC)[C@@H](CC(=O)OC)OO1` [PLAKORTIN] showed a pIC50 of 6.41.

The values above are taken from ChEMBL document CHEMBL1166001, “Manadoperoxides A-D from the Indonesian sponge Plakortis cfr. simplex. Further insights on the structure-activity relationships of simple 1,2-dioxane antimalarials” (J Nat Prod, 2010).
